Measurements published in the NIST ThermoML archive (doi:10.1021/acs.jced.8b00153).

Legend:
[1] = refractive index (Na D-line) (dimensionless); conditions: 100 kPa, Liquid, Standard Abbe refractometry
[2] = relative permittivity at various frequencies (dimensionless); conditions: 100 kPa, Liquid, Frequency=2 MHz, Parallel plate capacitor

CCc1ccco1 [2-ethylfuran]
Conditions	refractive index, [1]	relative permittivity, [2]
278.15 K	–	2.837
280.65 K	–	2.823
283.15 K	1.44533	2.813
285.65 K	1.4439	2.798
288.15 K	1.44245	2.784
290.65 K	1.44101	2.766
293.15 K	1.43956	2.756
295.65 K	1.43817	2.739
298.15 K	1.43672	2.725
300.65 K	1.43531	2.709
303.15 K	1.43387	2.699
305.65 K	1.43244	2.682
308.15 K	1.431	2.668
310.65 K	1.42958	2.657
313.15 K	1.42814	2.643
315.65 K	1.42671	2.626
318.15 K	1.42528	2.611
320.65 K	1.42385	2.601
323.15 K	1.42241	2.583
325.65 K	1.42097	2.573
328.15 K	1.41953	2.559
330.65 K	1.4181	2.544
333.15 K	1.41669	2.527
335.65 K	1.41523	2.516
338.15 K	1.41379	2.503

CCc1cccs1 [2-ethylthiophene]
Conditions	refractive index, [1]	relative permittivity, [2]
278.15 K	–	2.968
280.65 K	–	2.959
283.15 K	1.51841	2.946
285.65 K	1.51699	2.936
288.15 K	1.51557	2.929
290.65 K	1.51417	2.916
293.15 K	1.51272	2.911
295.65 K	1.51125	2.9
298.15 K	1.50981	2.887
300.65 K	1.50841	2.878
303.15 K	1.50698	2.871
305.65 K	1.50556	2.858
308.15 K	1.50413	2.848
310.65 K	1.50269	2.838
313.15 K	1.50125	2.833
315.65 K	1.49981	2.82
318.15 K	1.49836	2.81
320.65 K	1.49695	2.799
323.15 K	1.4955	2.792
325.65 K	1.49405	2.782
328.15 K	1.49261	2.775
330.65 K	1.49116	2.766
333.15 K	1.48973	2.753
335.65 K	1.48827	2.745
338.15 K	1.48684	2.734
